Test results taken from PubChem BioAssay (NCI).
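Assay format: 96-well plates, 48-hour exposure. TGI denotes the concentration required for complete inhibition of growth.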

Columns and labels:
Experiment in all cases: NCI-60 cell line screen, 48 h
[1] = test system: HOP-92 NSCLC
[2] = test system: EKVX NSCLC
[3] = test system: SK-MEL-28 melanoma
[4] = test system: DU-145 prostate
[5] = test system: HCC-2998 colon
[6] = test system: HCT-15 colon
[7] = test system: IGROV1 ovarian
[8] = test system: SK-OV-3 ovarian
[9] = test system: OVCAR-5 ovarian
[10] = test system: RPMI-8226 leukemia
[11] = test system: LOX IMVI melanoma
[12] = test system: U251 CNS
[13] = test system: MDA-MB-435
[14] = test system: M14 melanoma
[15] = test system: SK-MEL-2 melanoma
[16] = test system: NCI-H23 lung
[17] = test system: UACC-62 melanoma
[18] = test system: TK-10 renal
[19] = test system: A498 renal
[20] = test system: NCI-H226 lung
[21] = test system: UACC-257 melanoma
[22] = test system: NCI/ADR-RES ovarian
[23] = test system: OVCAR-3 ovarian
[24] = test system: NCI-H460 lung
[25] = test system: HL-60(TB) leukemia
[26] = test system: A549 NSCLC
[27] = test system: HCT-116 colon
[28] = test system: PC-3 prostate
[29] = test system: UO-31 renal
[30] = test system: ACHN renal
[31] = test system: SF-539 CNS
[32] = test system: MCF7 breast
[33] = test system: CAKI-1 renal
[34] = test system: HS 578T breast
[35] = test system: COLO 205 colon
[36] = test system: MDA-N
[37] = test system: SF-268 CNS
[38] = test system: BT-549 breast
[39] = test system: NCI-H522 lung
[40] = test system: 786-0 renal
[41] = test system: SR leukemia
[42] = test system: SF-295 CNS
[43] = test system: MALME-3M melanoma
[44] = test system: OVCAR-4 ovarian
[45] = test system: SW-620 colon
[46] = test system: T-47D breast
[47] = test system: HT29 colon
[48] = test system: SNB-19 CNS
[49] = test system: SN12C renal
[50] = test system: MDA-MB-231 breast
[51] = test system: RXF 393 renal
[52] = test system: HOP-62 NSCLC
[53] = test system: OVCAR-8 ovarian
[54] = test system: CCRF-CEM leukemia
[55] = test system: SK-MEL-5 melanoma
[56] = test system: KM12 colon
[57] = test system: K-562 leukemia
[58] = test system: MOLT-4 leukemia

CO[C@@H]1C[C@H](OC(N)=O)[C@@H]2C=C[C@@H]3/C=C(C)/C=C/[C@@H](C)[C@H]([C@H](C)[C@H](O)[C@@H](C)NC(C)=O)OC(=O)/C=C/C=C(C)\C=C\[C@]3(C)[C@@H]2C1
TGI [1]: < 0.01 µM
TGI [2]: 5.34 µM
TGI [3]: 1.84 µM
TGI [4]: 9.01 µM
TGI [5]: 1.39 µM
TGI [6]: 6.77 µM
TGI [7]: 3.28 µM
TGI [8]: 3.66 µM
TGI [9]: 9.19 µM
TGI [10]: 3.78 µM
TGI [11]: < 0.01 µM
TGI [12]: 1.61 µM
TGI [13]: 4.36 µM
TGI [14]: 1.62 µM
TGI [15]: 7.09 µM
TGI [16]: 13.1 µM
TGI [17]: 1.4 µM
TGI [18]: 3.55 µM
TGI [19]: 0.496 µM
TGI [20]: < 0.01 µM
TGI [21]: 3.04 µM
TGI [22]: 6.11 µM
TGI [23]: 3.65 µM
TGI [24]: 1.58 µM
TGI [25]: 3.32 µM
TGI [26]: 10 µM
TGI [27]: 1.25 µM
TGI [28]: 10.8 µM
TGI [29]: 0.645 µM
TGI [30]: 2.67 µM
TGI [31]: 1.46 µM
TGI [32]: 11.3 µM
TGI [33]: 2.67 µM
TGI [34]: 0.264 µM
TGI [35]: 11.1 µM
TGI [36]: 6.03 µM
TGI [37]: 4.95 µM
TGI [38]: > 28.5 µM
TGI [39]: 1.44 µM
TGI [40]: 6.62 µM
TGI [41]: 0.887 µM
TGI [42]: 1.51 µM
TGI [43]: 3.53 µM
TGI [44]: 9.75 µM
TGI [45]: 10.3 µM
TGI [46]: 11 µM
TGI [47]: 1.93 µM
TGI [48]: 17.7 µM
TGI [49]: 8.72 µM
TGI [50]: 0.0634 µM
TGI [51]: 3.06 µM
TGI [52]: 4.81 µM
TGI [53]: 13.6 µM

CN(C)CCCNC(=O)c1cc2/c(=C\c3ccc(N(C)C)cc3)c3ccccc3n2[n+]1C
TGI [1]: 56.4 µM
TGI [2]: 39.7 µM
TGI [3]: 74.8 µM
TGI [4]: > 100 µM
TGI [6]: > 100 µM
TGI [54]: 90.1 µM
TGI [55]: 31.3 µM
TGI [7]: 37.1 µM
TGI [8]: > 100 µM
TGI [9]: > 100 µM
TGI [10]: 53.6 µM
TGI [11]: > 100 µM
TGI [12]: 69.2 µM
TGI [13]: 58.7 µM
TGI [14]: 39 µM
TGI [15]: 35.6 µM
TGI [16]: 59.5 µM
TGI [17]: 34 µM
TGI [18]: > 100 µM
TGI [19]: > 100 µM
TGI [21]: 51.3 µM
TGI [56]: 61.6 µM
TGI [22]: > 100 µM
TGI [23]: 52.2 µM
TGI [24]: > 100 µM
TGI [25]: 46 µM
TGI [26]: > 100 µM
TGI [27]: 64.2 µM
TGI [28]: > 100 µM
TGI [29]: > 100 µM
TGI [30]: > 100 µM
TGI [31]: 39.4 µM
TGI [32]: 50.7 µM
TGI [33]: > 100 µM
TGI [34]: > 100 µM
TGI [35]: 21.3 µM
TGI [36]: 78.4 µM
TGI [37]: 90.9 µM
TGI [38]: > 100 µM
TGI [39]: 10.9 µM
TGI [40]: > 100 µM
TGI [41]: 54.1 µM
TGI [42]: > 100 µM
TGI [43]: 38.4 µM
TGI [44]: 21.4 µM
TGI [45]: > 100 µM
TGI [46]: 15.9 µM
TGI [47]: 82.8 µM
TGI [57]: 35.4 µM
TGI [48]: > 100 µM
TGI [49]: 13.5 µM
TGI [50]: 64.4 µM
TGI [51]: > 100 µM
TGI [52]: > 100 µM
TGI [58]: > 100 µM
TGI [53]: > 100 µM

CC(C)(C)c1ccc(C(C)(C)C)c(N2C(=O)[C@@H]3[C@@H]4C=C[C@@H](C4)[C@]3(C)C2=O)c1
TGI [1]: 9.64 µM
TGI [2]: > 100 µM
TGI [3]: > 100 µM
TGI [4]: 53.5 µM
TGI [5]: 29.1 µM
TGI [6]: 42.9 µM
TGI [54]: 32 µM
TGI [55]: > 100 µM
TGI [7]: 39.9 µM
TGI [8]: > 100 µM
TGI [9]: > 100 µM
TGI [10]: 49.1 µM
TGI [11]: 26.8 µM
TGI [12]: 52.5 µM
TGI [13]: 32.4 µM
TGI [14]: 51.3 µM
TGI [15]: 53.1 µM
TGI [16]: > 100 µM
TGI [17]: 46.7 µM
TGI [18]: > 100 µM
TGI [19]: 69.8 µM
TGI [20]: > 100 µM
TGI [21]: 74.4 µM
TGI [56]: > 100 µM
TGI [22]: > 100 µM
TGI [23]: 53 µM
TGI [24]: > 100 µM
TGI [25]: 40.4 µM
TGI [26]: > 100 µM
TGI [27]: 40.9 µM
TGI [28]: 72.6 µM
TGI [29]: > 100 µM
TGI [30]: > 100 µM
TGI [31]: > 100 µM
TGI [32]: > 100 µM
TGI [33]: > 100 µM
TGI [34]: 59.9 µM
TGI [35]: > 100 µM
TGI [36]: 31.9 µM
TGI [37]: 74 µM
TGI [38]: 57.7 µM
TGI [39]: 47.4 µM
TGI [40]: 40.2 µM
TGI [41]: 39.9 µM
TGI [42]: > 100 µM
TGI [43]: 53 µM
TGI [44]: 26.7 µM
TGI [45]: 62.6 µM
TGI [46]: 82.6 µM
TGI [47]: > 100 µM
TGI [57]: > 100 µM
TGI [48]: > 100 µM
TGI [49]: 52.3 µM
TGI [50]: > 100 µM
TGI [51]: 32.2 µM
TGI [52]: > 100 µM
TGI [58]: 61 µM
TGI [53]: 33.4 µM

C1CSC(Sc2nc(SC3=NCCS3)nc(SC3=NCCS3)n2)=N1
TGI [1]: > 100 µM
TGI [2]: > 100 µM
TGI [3]: > 100 µM
TGI [4]: > 100 µM
TGI [5]: > 100 µM
TGI [6]: > 100 µM
TGI [54]: > 100 µM
TGI [55]: > 100 µM
TGI [7]: > 100 µM
TGI [8]: > 100 µM
TGI [9]: > 100 µM
TGI [10]: > 100 µM
TGI [11]: > 100 µM
TGI [12]: > 100 µM
TGI [13]: > 100 µM
TGI [14]: > 100 µM
TGI [15]: > 100 µM
TGI [16]: > 100 µM
TGI [17]: > 100 µM
TGI [18]: > 100 µM
TGI [19]: > 100 µM
TGI [20]: > 100 µM
TGI [21]: > 100 µM
TGI [56]: > 100 µM
TGI [22]: > 100 µM
TGI [23]: > 100 µM
TGI [24]: > 100 µM
TGI [25]: > 100 µM
TGI [26]: > 100 µM
TGI [27]: > 100 µM
TGI [28]: > 100 µM
TGI [29]: > 100 µM
TGI [30]: > 100 µM
TGI [31]: > 100 µM
TGI [32]: > 100 µM
TGI [33]: > 100 µM
TGI [34]: > 100 µM
TGI [35]: > 100 µM
TGI [36]: > 100 µM
TGI [37]: > 100 µM
TGI [38]: > 100 µM
TGI [39]: > 100 µM
TGI [40]: > 100 µM
TGI [41]: > 100 µM
TGI [42]: > 100 µM
TGI [43]: > 100 µM
TGI [44]: > 100 µM
TGI [45]: > 100 µM
TGI [46]: > 100 µM
TGI [47]: > 100 µM
TGI [57]: > 100 µM
TGI [48]: > 100 µM
TGI [49]: > 100 µM
TGI [50]: > 100 µM
TGI [51]: > 100 µM
TGI [52]: > 100 µM
TGI [58]: > 100 µM
TGI [53]: > 100 µM

CC(=O)NCCC1CNc2ccccc21 (stereo unspecified)
TGI [1]: > 100 µM
TGI [2]: > 100 µM
TGI [3]: > 100 µM
TGI [4]: > 100 µM
TGI [5]: > 100 µM
TGI [6]: > 100 µM
TGI [54]: > 100 µM
TGI [55]: > 100 µM
TGI [7]: > 100 µM
TGI [8]: > 100 µM
TGI [9]: > 100 µM
TGI [10]: > 100 µM
TGI [11]: > 100 µM
TGI [12]: > 100 µM
TGI [13]: > 100 µM
TGI [14]: > 100 µM
TGI [15]: > 100 µM
TGI [16]: > 100 µM
TGI [17]: > 100 µM
TGI [18]: > 100 µM
TGI [19]: > 100 µM
TGI [20]: > 100 µM
TGI [21]: > 100 µM
TGI [56]: > 100 µM
TGI [22]: > 100 µM
TGI [23]: > 100 µM
TGI [24]: > 100 µM
TGI [25]: > 100 µM
TGI [26]: > 100 µM
TGI [27]: > 100 µM
TGI [28]: > 100 µM
TGI [29]: > 100 µM
TGI [30]: > 100 µM
TGI [31]: > 100 µM
TGI [32]: > 100 µM
TGI [33]: > 100 µM
TGI [34]: > 100 µM
TGI [35]: > 100 µM
TGI [36]: > 100 µM
TGI [37]: > 100 µM
TGI [38]: > 100 µM
TGI [39]: > 100 µM
TGI [41]: > 100 µM
TGI [42]: > 100 µM
TGI [43]: > 100 µM
TGI [44]: > 100 µM
TGI [45]: > 100 µM
TGI [46]: > 100 µM
TGI [47]: > 100 µM
TGI [57]: > 100 µM
TGI [48]: > 100 µM
TGI [49]: > 100 µM
TGI [50]: > 100 µM
TGI [51]: > 100 µM
TGI [58]: > 100 µM
TGI [53]: > 100 µM
